Test results as given in patent US9433622B2, “Pyrimidine compounds useful in the treatment of diseases mediated by IKKE and/or TBK1 mechanisms” (DOMAINEX LIMITED, priority 2013, dated 2016).

Tests used:
TBK1 = TBK1 (Homo sapiens (Human), UniProt Q9UHD2); experiment: Lanthascreen TR-FRET kinase inhibition assay, TBK1; type: biochemical; conditions: 20 μM ATP (apparent Km), 8 nM kinase, 2.5 h
Description: (§1) Compounds of the invention (synthesised as described below) were tested for activity against the IKKε and TBK-1 enzyme as follows:
(§2) Inhibitions studies were performed using a time-resolved fluorescence-based Lanthascreen™ assay. Phosphorylation of a fluorescein-labelled substrate peptide is measured using terbium-labeled phosphospecific antibodies.
(§3) Kinase inhibition assays (10 μL) were performed at 20° C. in 384-well plate format. […] The final reaction conditions contained 400 nM fluorescein-IkBα substrate ([…]), 20 μM ATP, 2 nM or 8 nM IKKε or TBK1 kinase respectively, and 3% DMSO in kinase assay buffer consisting of 50 mM HEPES (pH 7.5), 10 mM MgCl, 1 mM EGTA, 0.01% Brij-35.
(§4) Compound dilutions were prepared from 10 mM DMSO stocks by dilution into DMSO.
(§5) The kinase phosphorylation assay was initiated by the addition of the kinase and the reaction was allowed to proceed for 1 h or 2.5 h for IKKε and TBK-1 kinase respectively.

IKKε = IKKε (Homo sapiens (Human), UniProt Q14164); experiment: Lanthascreen TR-FRET kinase inhibition assay, IKKε; type: biochemical; conditions: 20 μM ATP (apparent Km), 2 nM kinase, 1 h
IKKε, sequence (Q14164 whole entry): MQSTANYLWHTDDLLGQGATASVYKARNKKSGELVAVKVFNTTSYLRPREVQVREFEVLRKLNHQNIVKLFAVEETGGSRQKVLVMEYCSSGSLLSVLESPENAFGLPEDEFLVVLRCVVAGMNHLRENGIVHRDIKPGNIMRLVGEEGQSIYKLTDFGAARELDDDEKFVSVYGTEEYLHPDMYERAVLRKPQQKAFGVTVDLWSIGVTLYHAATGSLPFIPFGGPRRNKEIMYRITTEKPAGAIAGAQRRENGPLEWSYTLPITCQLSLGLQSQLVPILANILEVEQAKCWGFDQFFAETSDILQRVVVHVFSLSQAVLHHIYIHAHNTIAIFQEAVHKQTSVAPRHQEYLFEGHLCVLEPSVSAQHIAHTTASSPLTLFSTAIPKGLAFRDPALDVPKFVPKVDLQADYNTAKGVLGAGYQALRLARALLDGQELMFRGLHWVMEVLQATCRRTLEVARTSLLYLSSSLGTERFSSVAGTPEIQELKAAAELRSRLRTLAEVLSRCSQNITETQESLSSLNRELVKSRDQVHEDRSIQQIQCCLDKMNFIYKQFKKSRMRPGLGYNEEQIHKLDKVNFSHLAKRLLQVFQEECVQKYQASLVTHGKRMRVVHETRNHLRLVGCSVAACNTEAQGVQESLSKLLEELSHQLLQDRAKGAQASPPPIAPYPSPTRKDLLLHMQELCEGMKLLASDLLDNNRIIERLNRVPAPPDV
Description: as §1, §2, §3, §4, §5

TBK1, sequence (Q9UHD2 whole entry): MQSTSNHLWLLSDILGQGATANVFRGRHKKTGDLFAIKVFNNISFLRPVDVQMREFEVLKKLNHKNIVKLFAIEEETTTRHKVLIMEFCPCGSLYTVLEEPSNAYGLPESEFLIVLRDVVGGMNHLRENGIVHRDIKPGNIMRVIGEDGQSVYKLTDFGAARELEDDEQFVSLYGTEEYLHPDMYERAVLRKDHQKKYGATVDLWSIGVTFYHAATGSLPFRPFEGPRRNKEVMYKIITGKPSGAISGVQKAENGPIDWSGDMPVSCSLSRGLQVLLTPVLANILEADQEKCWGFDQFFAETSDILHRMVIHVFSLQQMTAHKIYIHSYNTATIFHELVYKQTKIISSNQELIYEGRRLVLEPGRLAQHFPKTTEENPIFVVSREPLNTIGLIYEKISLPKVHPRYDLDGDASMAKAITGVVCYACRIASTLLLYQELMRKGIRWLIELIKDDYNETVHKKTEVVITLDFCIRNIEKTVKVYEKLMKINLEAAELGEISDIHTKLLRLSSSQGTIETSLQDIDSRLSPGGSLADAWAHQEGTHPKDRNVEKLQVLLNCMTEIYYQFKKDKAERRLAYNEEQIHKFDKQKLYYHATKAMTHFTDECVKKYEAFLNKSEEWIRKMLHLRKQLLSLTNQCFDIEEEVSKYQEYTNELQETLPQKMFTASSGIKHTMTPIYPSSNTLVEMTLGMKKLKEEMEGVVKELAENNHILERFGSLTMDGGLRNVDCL

Structure (SMILES) | IC50 (TBK1) | IC50 (IKKε)
N#Cc1cc(-c2nc(Nc3ccc(NC(=O)CN4CCOCC4)nc3)ncc2F)cnc1N1CC[C@H](F)C1 [DMX-88, N-(5-{4-[5-Cyano-6-((S)-3-fluoro-pyrrolidin-1-yl)-pyridin-3-yl]-5-fluoro-pyrimidin-2-ylamino}-pyridin-2-yl)-2-morpholin-4-yl-acetamide] | < 100 nM | < 100 nM
N#Cc1cc(-c2ccnc(Nc3ccc(CN4CCOCC4)nc3)n2)cnc1NC1CCCC1 [DMX-139, 2-Cyclopentylamino-5-[2-(6-morpholin-4-ylmethyl-pyridin-3-ylamino)-pyrimidin-4-yl]-nicotinonitrile] | < 100 nM | < 100 nM
N#Cc1cc(-c2ccnc(Nc3ccc(NC(=O)CN4CCOCC4)nc3)n2)cnc1N1CC[C@H](F)C1 [DMX-17, N-(5-{4-[5-Cyano-6-((S)-3-fluoro-pyrrolidin-1-yl)-pyridin-3-yl]-pyrimidin-2-ylamino}-pyridin-2-yl)-2-morpholin-4-yl-acetamide] | < 30 nM | < 30 nM
COCCN(C)Cc1ccc(Nc2nccc(-c3ccc(N4CC[C@H](F)C4)c(C#N)n3)n2)cn1 [DMX-152, 3-((S)-3-Fluoro-pyrrolidin-1-yl)-6-[2-(6-{[(2-methoxy-ethyl)-methyl-amino]-methyl}-pyridin-3-ylamino)-pyrimidin-4-yl]-pyridine-2-carbonitrile] | < 30 nM | < 30 nM
COCCN(C)c1ccc(-c2ccnc(Nc3cnn(C)c3)n2)nc1C#N [DMX-155] | < 1000 nM | < 1000 nM
CN(CCO)Cc1ccc(Nc2nccc(-c3cnc(N4CC[C@H](F)C4)c(C#N)c3)n2)cn1 [DMX-104, 2-((S)-3-Fluoro-pyrrolidin-1-yl)-5-[2-(6-{[(2-hydroxy-ethyl)-methyl-amino]-methyl}-pyridin-3-ylamino)-pyrimidin-4-yl]-nicotinonitrile] | < 100 nM | < 100 nM
N#Cc1nc(-c2ccnc(Nc3ccc(NC(=O)CN4CCOCC4)nc3)n2)ccc1N1CC[C@H](F)C1 [DMX-142] | < 15 nM | < 15 nM
CN1CCC(Nc2ccc(Nc3nccc(-c4cnc(NCCO)c(C#N)c4)n3)cn2)CC1 [DMX-120, 2-(2-Hydroxy-ethylamino)-5-{2-[6-(1-methyl-piperidin-4-ylamino)-pyridin-3-ylamino]-pyrimidin-4-yl}-nicotinonitrile] | < 100 nM | < 1000 nM
Cn1cc(Nc2nccc(-c3ccc(N4CC[C@H](O)C4)c(C#N)n3)n2)cn1 [DMX-59, 3-((S)-3-Hydroxy-pyrrolidin-1-yl)-6-[2-(1-methyl-1H-pyrazol-4-ylamino)-pyrimidin-4-yl]-pyridine-2-carbonitrile] | < 100 nM | < 100 nM
CC(=O)NCC1CCCN1c1ncc(-c2ccnc(Nc3ccc(CN4CCOCC4)nc3)n2)cc1C#N (stereo not shown) [DMX-130, N-(1-{3-Cyano-5-[2-(6-morpholin-4-ylmethyl-pyridin-3-ylamino)-pyrimidin-4-yl]-pyridin-2-yl}-pyrrolidin-2-ylmethyl)-acetamide] | < 1000 nM | < 1000 nM
N#Cc1cc(-c2ccnc(Nc3ccc(NC4CCNCC4)nc3)n2)cnc1N1CC[C@H](F)C1 [DMX-10, 2-((S)-3-Fluoro-pyrrolidin-1-yl)-5-{2-[6-(piperidin-4-ylamino)-pyridin-3-ylamino]-pyrimidin-4-yl}-nicotinonitrile] | < 30 nM | < 30 nM
N#Cc1nc(-c2ccnc(Nc3ccc(NC(=O)CN4CCOCC4)nc3)n2)ccc1N1CCCOCC1 [DMX-166, N-{5-[4-(6-Cyano-5-[1,4]oxazepan-4-yl-pyridin-2-yl)-pyrimidin-2-ylamino]-pyridin-2-yl)-2-morpholin-4-yl-acetamide] | < 100 nM | < 100 nM
N#Cc1cc(-c2ccnc(Nc3cccc(C(N)=O)c3)n2)cnc1N1CCCC1 [DMX-2, 3-[4-(5-Cyano-6-pyrrolidin-1-yl-pyridin-3-yl)-pyrimidin-2-ylamino]-benzamide] | < 30 nM | < 30 nM
N#Cc1nc(-c2ccnc(Nc3ccc(CN4CC[C@H](F)C4)nc3)n2)ccc1N1CC[C@H](F)C1 [DMX-150, 3-((S)-3-Fluoro-pyrrolidin-1-yl)-6-{2-[6-((S)-3-fluoro-pyrrolidin-1-ylmethyl)-pyridin-3-ylamino]-pyrimidin-4-yl}-pyridine-2-carbonitrile] | < 15 nM | < 15 nM
N#Cc1cc(-c2ccnc(Nc3ccc(CN4CCOCC4)nc3)n2)cnc1N1CCCC1CC(N)=O (stereo not shown) [DMX-131, 2-(1-{3-Cyano-5-[2-(6-morpholin-4-ylmethyl-pyridin-3-ylamino)-pyrimidin-4-yl]-pyridin-2-yl}-pyrrolidin-2-yl)-acetamide] | < 30 nM | < 30 nM
N#Cc1nc(-c2ccnc(Nc3ccc(NC(=O)CN4CC[C@H](F)C4)nc3)n2)ccc1N1CC[C@H](F)C1 [DMX-145, N-(5-{4-[6-Cyano-5-((S)-3-fluoro-pyrrolidin-1-yl)-pyridin-2-yl]-pyrimidin-2-ylamino}-pyridin-2-yl)-2-((S)-3-fluoro-pyrrolidin-1-yl)-acetamide] | < 30 nM | < 30 nM
N#Cc1cc(-c2ccnc(Nc3ccc(CN4CCOCC4)nc3)n2)cnc1N1CCNC(=O)CC1 [DMX-133, 5-[2-(6-Morpholin-4-yImethyl-pyridin-3-ylamino)-pyrimidin-4-yl]-2-(5-oxo-[1,4]diazepan-1-yl)-nicotinonitrile] | < 1000 nM | < 1000 nM
N#Cc1cc(-c2ccnc(Nc3ccc(NC(=O)[C@@H]4CCCN4)nc3)n2)cnc1N1CC[C@H](F)C1 [DMX-65, (S)-Pyrrolidine-2-carboxylic acid (5-{4-[5-cyano-6-((S)-3-fluoro-pyrrolidin-1-yl)-pyridin-3-yl]-pyrimidin-2-ylamino}-pyridin-2-yl)-amide] | < 100 nM | < 30 nM
Cc1nccn1Cc1ccc(Nc2nccc(-c3cnc(N4CC[C@H](F)C4)c(C#N)c3)n2)cn1 [DMX-81, 2-((S)-3-Fluoro-pyrrolidin-1-yl)-5-{2-[6-(2-methyl-imidazol-1-ylmethyl)-pyridin-3-ylamino]-pyrimidin-4-yl}-nicotinonitrile] | < 30 nM | < 30 nM
N#Cc1cc(-c2ccnc(Nc3ccc(NC(=O)CN4CCOCC4)nc3)n2)cnc1N1CC[C@@H](F)C1 [DMX-112, N-(5-{4-[5-Cyano-6-((R)-3-fluoro-pyrrolidin-1-yl)-pyridin-3-yl]-pyrimidin-2-ylamino}-pyridin-2-yl)-2-morpholin-4-yl-acetamide] | < 30 nM | < 15 nM
Cn1cc(Nc2nccc(-c3cnc(N[C@@H]4CCOC4)c(C#N)c3)n2)cn1 [DMX-116, 5-[2-(1-Methyl-1H-pyrazol-4-ylamino)-pyrimidin-4-yl]-2-[(R)-(tetrahydro-furan-3-yl)amino]-nicotinonitrile] | < 1000 nM | < 1000 nM
CC(=O)Nc1ccc(Nc2nccc(-c3cnc(N4CC[C@H](F)C4)c(C#N)c3)n2)cn1 [DMX-8, N-(5-{4-[5-Cyano-6-((S)-3-fluoro-pyrrolidin-1-yl)-pyridin-3-yl]-pyrimidin-2-ylamino}-pyridin-2-yl)-acetamide] | < 30 nM | < 30 nM
N#Cc1cc(-c2ccnc(Nc3ccc(CN4CCOCC4)nc3)n2)cnc1N1CC[C@H](F)C1 [DMX-68, 2-((S)-3-Fluoro-pyrrolidin-1-yl)-5-[2-(6-morpholin-4-ylmethyl-pyridin-3-ylamino)-pyrimidin-4-yl]-nicotinonitrile] | < 15 nM | < 15 nM
